Test results: patent US20130109682A1, “CYCLIC ETHER COMPOUNDS USEFUL AS KINASE INHIBITORS” (NOVARTIS AG, priority 2010, published 2013)

Columns and labels:
PIM1 = PIM1 (Homo sapiens, UniProt P11309); assay: KinaseGlo Pim1 ATP depletion assay; assay type: biochemical
In short: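 2.5 nM PIM1 preincubated 15 min with compound and 40 μM BAD peptide in 50 mM HEPES pH 7.5, 5 mM MgCl2, 1 mM DTT, 0.05% BSA, 2.5% DMSO. The reaction was started with 20 μM ATP (final) and run to about 50% ATP depletion. Remaining ATP read by KinaseGlo Plus luminescence to give IC50.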

PIM2 = PIM2 (Homo sapiens, UniProt Q9P1W9); assay: KinaseGlo Pim2 ATP depletion assay; assay type: biochemical
In short: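 Luminescent ATP-depletion read-out of PIM2 phosphorylating BAD peptide (RSRHSSYPAGT-OH). Final conditions: 5 nM PIM2, 4 μM ATP, 10 μM peptide, 2.5% DMSO in 50 mM HEPES pH 7.5, 5 mM MgCl2, 1 mM DTT, 0.05% BSA. Enzyme–peptide preincubated 15 min with compound; reaction run to ~50% ATP depletion.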

PIM3 = PIM3 (Homo sapiens, UniProt Q86V86); assay: KinaseGlo Pim3 ATP depletion assay; assay type: biochemical
In short: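 Kinase was preincubated 15 min with BAD peptide in HEPES pH 7.5/MgCl2/DTT/BSA before ATP was added. Final concentrations were 40 μM ATP, 100 μM BAD peptide and 2.5% DMSO, with 5 nM enzyme. The reaction ran to ~50% ATP depletion and remaining ATP was read by KinaseGlo Plus luminescence.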

GSK3β = GSK3β (Homo sapiens, UniProt P49841); assay: GSK3β ATP depletion assay; assay type: biochemical; conditions: read-out: GSK3b IC50
In short: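 Human GSK3β (5 nM) preincubated 15 min with 10 μM biotinylated phospho-CREB peptide in pH 7.5 Tris buffer (15 mM MgCl2, 1 mM DTT, 0.1% BSA, 2.5% DMSO). Reaction started with 2 μM ATP and run to about 50% ATP depletion. Remaining ATP measured by KinaseGlo luminescence.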

[1] = system: KMS11 (human myeloma cell line); assay: Cell proliferation assay (CellTiter-Glo), KMS11; assay type: cell-based; conditions: Homo sapiens, KMS-11; KMS11-Luc cells
In short: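 KMS11 cells in IMDM with 10% FBS and sodium pyruvate, seeded at 2000 cells/well on assay day. Compound added at 2× to equal volume of cells, incubated 3 days at 37° C. Viability read by CellTiter-Glo luminescence; EC50 derived.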

PIM1, sequence (P11309 whole entry): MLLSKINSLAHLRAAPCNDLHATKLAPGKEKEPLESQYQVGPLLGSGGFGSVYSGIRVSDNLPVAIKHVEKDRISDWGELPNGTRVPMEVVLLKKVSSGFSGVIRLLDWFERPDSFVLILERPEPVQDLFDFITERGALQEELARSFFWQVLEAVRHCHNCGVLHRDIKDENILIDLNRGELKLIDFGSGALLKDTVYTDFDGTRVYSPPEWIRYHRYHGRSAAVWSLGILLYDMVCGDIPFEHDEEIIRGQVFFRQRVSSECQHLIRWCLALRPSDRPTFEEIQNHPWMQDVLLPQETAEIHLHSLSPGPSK
PIM2, sequence (Q9P1W9 whole entry): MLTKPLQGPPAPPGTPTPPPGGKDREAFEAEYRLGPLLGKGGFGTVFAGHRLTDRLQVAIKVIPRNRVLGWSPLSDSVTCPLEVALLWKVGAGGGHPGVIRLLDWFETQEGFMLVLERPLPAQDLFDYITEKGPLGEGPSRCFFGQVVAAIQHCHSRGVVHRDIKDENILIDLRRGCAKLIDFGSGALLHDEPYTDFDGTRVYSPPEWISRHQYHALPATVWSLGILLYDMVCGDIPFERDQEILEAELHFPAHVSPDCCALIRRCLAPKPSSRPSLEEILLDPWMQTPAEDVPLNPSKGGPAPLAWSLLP
GSK3β, sequence (P49841 whole entry, species assumed): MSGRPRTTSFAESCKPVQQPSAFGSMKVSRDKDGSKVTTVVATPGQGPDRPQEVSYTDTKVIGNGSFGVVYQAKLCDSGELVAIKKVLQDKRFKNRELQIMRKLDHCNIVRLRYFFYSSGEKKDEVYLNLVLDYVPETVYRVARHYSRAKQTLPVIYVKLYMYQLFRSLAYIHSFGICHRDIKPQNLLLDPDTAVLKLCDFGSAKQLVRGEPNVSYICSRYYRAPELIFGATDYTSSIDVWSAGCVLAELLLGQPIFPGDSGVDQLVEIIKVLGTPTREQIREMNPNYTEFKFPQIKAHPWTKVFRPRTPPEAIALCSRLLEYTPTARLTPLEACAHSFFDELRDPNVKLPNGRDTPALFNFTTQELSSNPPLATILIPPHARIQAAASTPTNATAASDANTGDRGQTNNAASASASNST

SMILES | IC50 (PIM1) | IC50 (PIM2) | IC50 (PIM3) | IC50 (GSK3β) | EC50 [1]
CC1(C)O[C@H](c2ccncc2NC(=O)c2csc(-c3c(F)cccc3F)n2)C[C@@H](O)[C@H]1O [Example 90, 2-(2,6-difluorophenyl)-N-(4-((2S,4R,5R)-4,5-dihydroxy-6,6-dimethyltetrahydro-2H-pyran-2-yl)pyridin-3-yl)thiazole-4-carboxamide] | 0.005 µM | 0.5 µM | 0.031 µM | 0.046 µM | 4 µM
C[C@H]1[C@H](C)O[C@H](c2ccncc2NC(=O)c2ccc(F)c(-c3c(F)cccc3F)n2)C[C@@H]1O (stereo in doubt) [Example 96, 6-(2,6-difluorophenyl)-5-fluoro-N-(4-((2S,4S,5R,6S)-4-hydroxy-5,6-dimethyltetrahydro-2H-pyran-2-yl)pyridin-3-yl)picolinamide] | 0.001 µM | 0.016 µM | 0.003 µM | 0.141 µM | 3.9 µM
N#CC[C@H]1O[C@@H](c2ccncc2NC(=O)c2ccc(F)c(-c3c(F)cccc3F)n2)C[C@@H](O)[C@@H]1O [Example 137, N-(4-((2R,4R,5S,6R)-6-(cyanomethyl)-4,5-dihydroxytetrahydro-2H-pyran-2-yl)pyridin-3-yl)-6-(2,6-difluorophenyl)-5-fluoropicolinamide] | 0.003 µM | 0.023 µM | 0.005 µM | 0.351 µM | > 10 µM
CC[C@H]1O[C@@H](c2ccncc2NC(=O)c2nc(-c3c(F)cccc3F)sc2N)C[C@@H](O)[C@@H]1O [Example 40, 5-amino-2-(2,6-difluorophenyl)-N-(4-((2R,4R,5S,6R)-6-ethyl-4,5-dihydroxytetrahydro-2H-pyran-2-yl)pyridin-3-yl)thiazole-4-carboxamide] | 0.001 µM | 0.002 µM | 0.002 µM | 0.002 µM | 0.6 µM
CC[C@]1(O)[C@H](O)C[C@H](c2ccncc2NC(=O)c2nc(-c3ccccc3)ncc2N)O[C@@H]1C [Example 26, 5-amino-N-(4-((2R,4R,5S,6R)-5-ethyl-4,5-dihydroxy-6-methyltetrahydro-2H-pyran-2-yl)pyridin-3-yl)-2-phenylpyrimidine-4-carboxamide] | 0.004 µM | 0.029 µM | 0.002 µM | 0.277 µM | > 10 µM
CC[C@]1(O)[C@H](O)C[C@H](c2ccncc2NC(=O)c2ncccc2N)O[C@@H]1C [Example 158, 3-amino-N-(4-((2R,4R,5S,6R)-5-ethyl-4,5-dihydroxy-6-methyltetrahydro-2H-pyran-2-yl)pyridin-3-yl)picolinamide] | 0.0088 µM | 0.0681 µM | 0.0069 µM | 0.0231 µM | > 10 µM
C[C@H]1O[C@@H](c2ccncc2NC(=O)c2ccc(F)c(-c3c(F)cccc3F)n2)[C@H](F)C(=O)[C@]1(C)O [Example 72, 6-(2,6-difluorophenyl)-5-fluoro-N-(4-((2S,3S,5R,6R)-3-fluoro-5-hydroxy-5,6-dimethyl-4-oxotetrahydro-2H-pyran-2-yl)pyridin-3-yl)picolinamide] | 0.001 µM | 0.015 µM | 0.006 µM | 0.385 µM | 1.5 µM
CC[C@H]1O[C@@H](c2ccncc2NC(=O)c2c[nH]cc(-c3ccccc3F)c2=O)C[C@@H](O)[C@@H]1O [Example 202, N-(4-((2R,4R,5S,6R)-6-ethyl-4,5-dihydroxytetrahydro-2H-pyran-2-yl)pyridin-3-yl)-5-(2-fluorophenyl)-4-oxo-1,4-dihydropyridine-3-carboxamide] | 0.754 µM | 6.91 µM | 1.1 µM | 4.4 µM | > 10 µM
CC[C@H]1O[C@@H](c2ccncc2NC(=O)c2cccn(-c3ccccc3)c2=O)C[C@@H](O)[C@@H]1O [Example 193, N-(4-((2R,4R,5S,6R)-6-ethyl-4,5-dihydroxytetrahydro-2H-pyran-2-yl)pyridin-3-yl)-2-oxo-1-phenyl-1,2-dihydropyridine-3-carboxamide] | 5.85 µM | > 25 µM | 7.57 µM | > 25 µM | > 10 µM
O=C(Nc1cnccc1[C@H]1C[C@@H](O)CCO1)c1csc(-c2c(F)cccc2F)n1 [Example 131, 2-(2,6-difluorophenyl)-N-(4-((2R,4S)-4-hydroxytetrahydro-2H-pyran-2-yl)pyridin-3-yl)thiazole-4-carboxamide] | 0.003 µM | 1.11 µM | 0.022 µM | 0.216 µM | > 10 µM
C[C@H]1O[C@@H](c2ccncc2NC(=O)c2csc(-c3c(F)cccc3F)n2)C[C@@H](O)[C@@H]1O (stereo in doubt) [Example 136, 2-(2,6-difluorophenyl)-N-(4-((2R,4R,5S,6R)-4,5-dihydroxy-6-methyltetrahydro-2H-pyran-2-yl)pyridin-3-yl)thiazole-4-carboxamide] | 0.018 µM | 0.363 µM | 0.013 µM | 0.165 µM | > 10 µM
Nc1cnc(-c2c(F)cccc2F)nc1C(=O)Nc1cnccc1[C@@H]1C[C@H](N)[C@]2(O)CCC[C@@H]2O1 [Example 214, 5-amino-N-(4-((2S,4S,4aR,7aS)-4-amino-4a-hydroxyoctahydrocyclopenta[b]pyran-2-yl)pyridin-3-yl)-2-(2,6-difluorophenyl)pyrimidine-4-carboxamide] | 0.258 µM | 2.25 µM | 0.373 µM | > 25 µM | > 10 µM
O=C(Nc1cnccc1[C@H]1C[C@@H](O)CC2(CC2)O1)c1csc(-c2c(F)cccc2F)n1 [Example 61, 2-(2,6-difluorophenyl)-N-(4-((5R,7R)-7-hydroxy-4-oxaspiro[2.5]octan-5-yl)pyridin-3-yl)thiazole-4-carboxamide] | 0.007 µM | 0.599 µM | 0.02 µM | 0.065 µM | > 10 µM
COC[C@H]1O[C@@H](c2ccncc2NC(=O)c2ccc(F)c(-c3c(F)cccc3F)n2)C[C@@H](O)[C@@H]1O [Example 57, 6-(2,6-difluorophenyl)-N-(4-((2R,4R,5S,6R)-4,5-dihydroxy-6-(methoxymethyl)tetrahydro-2H-pyran-2-yl)pyridin-3-yl)-5-fluoropicolinamide] | 0.019 µM | 0.111 µM | 0.028 µM | 2 µM | 6.1 µM
Nc1cnc(-c2c(F)cccc2F)nc1C(=O)Nc1cnccc1[C@H]1C[C@@H](O)[C@H](O)[C@@H](CCl)O1 [Example 17, 5-amino-N-(4-((2R,4R,5S,6S)-6-(chloromethyl)-4,5-dihydroxytetrahydro-2H-pyran-2-yl)pyridin-3-yl)-2-(2,6-difluorophenyl)pyrimidine-4-carboxamide] | 0.002 µM | 0.003 µM | 0.004 µM | 0.066 µM | 4.16 µM
C[C@@H]1O[C@H](c2ccncc2NC(=O)c2ccc(F)c(-c3c(F)cccc3F)n2)[C@@H](O)[C@H](O)[C@@]1(C)O (stereo in doubt) [Example 82, 6-(2,6-difluorophenyl)-5-fluoro-N-(4-((2R,3S,4S,5R,6S)-3,4,5-trihydroxy-5,6-dimethyltetrahydro-2H-pyran-2-yl)pyridin-3-yl)picolinamide] | 0.002 µM | 0.036 µM | 0.007 µM | 1.17 µM | > 10 µM
Nc1cc(F)c(-c2ccccc2F)nc1C(=O)Nc1cnccc1C1=CC(=O)[C@H](O)[C@@H](CCl)O1 [Example 151, 3-amino-N-(4-((2S,3R)-2-(chloromethyl)-3-hydroxy-4-oxo-3,4-dihydro-2H-pyran-6-yl)pyridin-3-yl)-5-fluoro-6-(2-fluorophenyl)picolinamide] | 0.0052 µM | 0.0842 µM | 0.0251 µM | 1.43 µM | > 10 µM
CC1C(c2ccncc2NC(=O)c2ccc(F)c(-c3c(F)cccc3F)n2)OC(C)[C@H](O)C1O (stereo in doubt) [Example 66, 6-(2,6-difluorophenyl)-N-(4-((2S,3R,4S,5R,6S)-4,5-dihydroxy-3,6-dimethyltetrahydro-2H-pyran-2-yl)pyridin-3-yl)-5-fluoropicolinamide] | 0.001 µM | 0.099 µM | 0.008 µM | 0.689 µM | 2.2 µM
C=C[C@H]1OC(c2ccncc2NC(=O)c2nc(-c3ccccc3)ncc2N)=C[C@@H](O)[C@@H]1O [Example 22, 5-amino-N-(4-((2R,3S,4R)-3,4-dihydroxy-2-vinyl-3,4-dihydro-2H-pyran-6-yl)pyridin-3-yl)-2-phenylpyrimidine-4-carboxamide] | 0.02 µM | 0.16 µM | 0.009 µM | 0.87 µM | > 10 µM
